Laboratory results taken from the Kinase Knowledgebase extract (Sharma et al. 2016).

These molecules were tested against MAPK14 (UniProt Q16539).
MAPK14, sequence (Q16539 whole entry, looked up): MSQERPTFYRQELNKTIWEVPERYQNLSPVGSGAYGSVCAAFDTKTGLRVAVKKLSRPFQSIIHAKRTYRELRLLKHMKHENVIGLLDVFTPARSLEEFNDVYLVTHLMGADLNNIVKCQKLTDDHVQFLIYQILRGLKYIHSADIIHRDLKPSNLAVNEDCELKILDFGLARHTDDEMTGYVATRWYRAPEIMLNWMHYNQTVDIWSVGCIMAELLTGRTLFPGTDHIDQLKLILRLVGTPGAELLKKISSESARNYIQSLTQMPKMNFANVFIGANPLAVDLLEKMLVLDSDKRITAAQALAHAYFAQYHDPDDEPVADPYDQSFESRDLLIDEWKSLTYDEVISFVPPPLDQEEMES

| Compound | IC50 |
| --- | --- |
| OC[C@@H](c1ccccc1)n1cnc(-c2ccc(F)cc2)c1-c1ccnc(Oc2ccccc2)n1 | < 50 µM |
| CC[C@@H](CO)n1cnc(-c2ccc(F)cc2)c1-c1ccnc(Oc2ccc(C)cc2)n1 | < 50 µM |
| CC[C@H](CO)n1cnc(-c2ccc(F)cc2)c1-c1ccnc(Oc2ccccc2)n1 | < 50 µM |
| C[C@H](CCN1CCOCC1)n1cnc(-c2ccc(F)cc2)c1-c1ccnc(Oc2ccccc2)n1 | < 50 µM |
| Cc1ccc(Oc2nccc(-c3c(-c4ccc(F)cc4)ncn3[C@@H](C)CO)n2)cc1 | < 50 µM |
| OCC(CO)n1cnc(-c2ccc(F)cc2)c1-c1ccnc(Oc2ccccc2)n1 | < 50 µM |
| C[C@H](CO)n1cnc(-c2ccc(F)cc2)c1-c1ccnc(Oc2ccc(F)cc2)n1 | < 50 µM |
| Cc1ccc(Oc2nccc(-c3c(-c4ccc(F)cc4)ncn3C(CO)CO)n2)cc1 | < 50 µM |
| CC[C@@H](CO)n1cnc(-c2ccc(F)cc2)c1-c1ccnc(Oc2ccccc2)n1 | < 50 µM |
| CC[C@@H](CO)n1cnc(-c2ccc(F)cc2)c1-c1ccnc(Oc2ccc(Cl)cc2)n1 | < 50 µM |
| OC[C@H](c1ccccc1)n1cnc(-c2ccc(F)cc2)c1-c1ccnc(Oc2ccccc2)n1 | < 50 µM |
| CC[C@H](CO)n1cnc(-c2ccc(F)cc2)c1-c1ccnc(Oc2ccc(C)cc2)n1 | < 50 µM |
| CC[C@H](CO)n1cnc(-c2ccc(F)cc2)c1-c1ccnc(Oc2ccc(Cl)cc2)n1 | < 50 µM |
| C[C@@H](CO)n1cnc(-c2ccc(F)cc2)c1-c1ccnc(Oc2ccc(F)cc2)n1 | < 50 µM |
| C[C@@H](CO)n1cnc(-c2ccc(F)cc2)c1-c1ccnc(Oc2ccc(Cl)cc2)n1 | < 50 µM |
| OCC(CO)n1cnc(-c2ccc(F)cc2)c1-c1ccnc(Oc2ccc(F)cc2)n1 | < 50 µM |
